Laboratory results published in US20260137815A1, “DIAGNOSTIC AND TREATMENT METHODS FOR ONYCHOMYCOSIS” (ToeFX Inc., priority 2022, published 2026).

Test system: T. rubrum strain F4520
Test: UV-Visual absorption spectra of MB incubated with T. rubrum
Procedure: Referring to FIG. 5C, shown therein are UV-Visual absorption spectra of MB when incubated with T. rubrum. T. rubrum strain F4520 cubes were retrieved from −80° freezer, thawed at room temperature, and transferred to an Sabourand dextrose agar (SDA) plate, and distributed evenly on the SDA plate. The SDA plate was sealed by parafilm and moved into a 30° C. incubator until vigorous fungal growth was observed. Next, fungal mycelia were prepared, by transferring a 6.25 cm^2 culture from the SDA plate to a sterile blender cup and adding 200 mL sterile water. After 30 seconds of blending, varying amounts of blendate was pipetted into wells of a 96 well plate. […] The MB absorbance spectra was then measured by a photospectrometer.
The more dilute the fungus, the higher the MB absorbance value (i.e., normalized absorbance), indicating higher amounts of free MB in the solution.
A similar protocol was followed as described above for FIG. 5C, except that the concentration of T. rubrum in the solution was kept constant. MB absorbance was measured immediately (curve 502), 4 days (curve 504), and 7 days (curve 506) after mixing. Immediately after mixing, the MB absorbance peak is centered at ˜660 nm, corresponding to the absorption peak of MB alone in solution (see FIG. 5A). Over time, the intensity of the absorbance peak is lowered as MB is adsorbed to fungal cells, consistent with the curves in FIG. 5C.

## CN(C)c1ccc2nc3ccc(=[N+](C)C)cc-3sc2c1 [MB, Methylene Blue]
0.01% v/v solution of MB, varying concentrations of T. rubrum
  MB absorbance (normalized) with increasing fungal concentration: lower MB absorbance is observed
0.25% v/v solution of MB with T. rubrum culture, immediately, 4 days, 7 days after mixing
  shift of MB absorbance peak over time: observable blue-shifting of the MB absorbance peak over time
